Experimental data as given in publication PMC10379010, “Short Peptides of Innate Immunity Protein Tag7 (PGLYRP1) Selectively Induce Inhibition or Activation of Tumor Cell Death via TNF Receptor” (International Journal of Molecular Sciences, 2023).
Where a SMILES comes first, the peptide text is derived from it.

Key:
sTNFR1 = target: T1, sTNFR1 (Homo sapiens, UniProt P19438); assay: Microscale thermophoresis, binding to labeled sTNFR1; conditions: labeled sTNFR1 200 nM, 16 ligand concentrations, 20 min, room temperature, triplicate, average ± SD, read-out: Apparent dissociation constant (Kd) with sTNFR1
T1 construct: the soluble extracellular domain of its receptor (sTNFR1); made in house
T1 sequence (P19438 30-211 limits assumed): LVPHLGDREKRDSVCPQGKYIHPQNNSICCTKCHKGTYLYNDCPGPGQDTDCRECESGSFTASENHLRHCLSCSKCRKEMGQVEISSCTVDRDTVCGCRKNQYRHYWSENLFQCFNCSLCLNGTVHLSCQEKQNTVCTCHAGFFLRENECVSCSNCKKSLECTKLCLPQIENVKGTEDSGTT
Source text: (§1) Protein–protein interactions of sTNFR1 and Hsp70 with the peptides 17.1, 17.1A and 17.1B and the Tag7 protein were quantified using microscale thermophoresis (MST). This biophysical method is based on the movement of molecules in a temperature gradient, which strongly depends on the charge, the hydration shell and the size of the moving molecules. At least one of these qualities usually changes during the formation of the complex. Therefore, thermophoresis provides a sensitive and reliable method for analyzing and quantifying protein–protein interactions. […] The obtained constants indicate a highly specific interaction of Tag7, 17.1 and 17.1A with sTNFR1. Similarly, clear changes in the thermophoretic signal were observed when Tag7, 17.1 and 17.1B were added to the labeled Hsp70. […]
(§2) The purified sTNFR1 and Hsp70 were fluorescently labeled using the Alexa Fluor 633 or Alexa Fluor 488 staining kit (Eugene, OR, USA) in accordance with the manufacturer’s instructions. sTNFR1 and Hsp70 (200 nM) were incubated for 20 min with each compound in the dark at room temperature at 16 different concentrations obtained by sequential dilution, starting from the highest soluble concentration. The samples were loaded into glass capillaries (Monolith NT Capillaries) and analyzed by thermophoresis using Nano-Temperature Monolith NT 115 apparatus (IR laser power 10%). […]

Hsp70 = target: T2, Hsp70 (Homo sapiens, UniProt P0DMV8); assay: Microscale thermophoresis, binding to labeled Hsp70; conditions: labeled Hsp70 200 nM, 16 ligand concentrations, 20 min, room temperature, triplicate, average ± SD, read-out: Apparent dissociation constant (Kd) with Hsp70
T2 construct: made in house
Source text: as §1, §2

[1] = tested on: L929 cells (TNFR1-induced cytotoxicity); assay: Inhibition of TNFR1-dependent cytotoxicity, L929 cells; type: cell-based, mouse; conditions: 24 h, peptide added 30 min before TNF (1 nM), only at peptide concentration of 100 nM, n = 5
Protocol: Figure 2 Cells (HL-60 (a–d) or L-929 (e,f)) were preincubated with peptide 17.1A (a,b) or 17.1B (c–f) for 30 min, and then a cytotoxic agent (TNF, Tag7-Hsp70 complex or autoantibodies) was added and cytotoxic activity was then determined after 3 (a,c,e) or 24 h (b,d,f) of cell incubation. n = 5 for each group). (* p-value < 0.05).
(L929 cells, 24 h of incubation, peptides were added 30 min before incubation with TNF (1 nM)) n = 5 for each point.
(§3) For the cytotoxicity tests, target cells were cultured in 96-well plates (6 × 10^4 cells per well) and mixed with lymphocytes at a ratio of 1:20. The cytotoxicity was measured after 24 h of incubation. The inhibition test was performed with peptides 17.1, 17.1A and 17.1B at a concentration of 1 nM. The cytotoxic activity of the lymphocytes was determined using the Cytotox 96 analysis kit (Promega, Madison, WI, USA) in accordance with the manufacturer’s protocol.

[2] = tested on: K562 cells (killed by cytotoxic CD4+-T lymphocytes); assay: Inhibition of the cytotoxic activity of CD4+-T lymphocytes; type: cell-based; conditions: K562 cells preincubated with peptide 30 min (1 nM), then cytotoxic lymphocytes, ratio 1:20, 24 h; Cytotox 96; n = 5
Protocol: Figure 5 (a) The peptides were biotinylated and added to cells of the K562 line, followed by incubation for 1 h. Next, the peptides were cross-linked with Hsp70 on the cell surface with BS^3 reagent (Sigma-Aldrich, St. Louis, MO, USA). After stopping the reaction, the cells were lysed in RIP-A (Sigma-Aldrich, St. Louis, MO, USA) buffer in the presence of protease inhibitors. The lysate was purified by magnetic separation on M280 Streptavidin Beads. The obtained fractions containing 17.1A-Hsp70 and 17.1B-Hsp70 were analyzed using 12% SDS-PAGE electrophoresis and Western blot. Complexes were detected using primary antibodies abHsp70 poly-AT and secondary antibodies anti-rabbit peroxidase-linked (ECL). (b) Tumor cells of the K562 line were preincubated with peptides 17.1, 17.1A and 17.1B for 30 min., and then cytotoxic lymphocytes were added and cytotoxic activity was determined (24 h incubation), n = 5 for each point, (* p-value < 0.05). […]
as §3, with “The inhibition test was performed with peptides 17.1, 17.1A and 17.1B at a concentration of 1 nM.” left out

T2 sequence (P0DMV8 whole entry): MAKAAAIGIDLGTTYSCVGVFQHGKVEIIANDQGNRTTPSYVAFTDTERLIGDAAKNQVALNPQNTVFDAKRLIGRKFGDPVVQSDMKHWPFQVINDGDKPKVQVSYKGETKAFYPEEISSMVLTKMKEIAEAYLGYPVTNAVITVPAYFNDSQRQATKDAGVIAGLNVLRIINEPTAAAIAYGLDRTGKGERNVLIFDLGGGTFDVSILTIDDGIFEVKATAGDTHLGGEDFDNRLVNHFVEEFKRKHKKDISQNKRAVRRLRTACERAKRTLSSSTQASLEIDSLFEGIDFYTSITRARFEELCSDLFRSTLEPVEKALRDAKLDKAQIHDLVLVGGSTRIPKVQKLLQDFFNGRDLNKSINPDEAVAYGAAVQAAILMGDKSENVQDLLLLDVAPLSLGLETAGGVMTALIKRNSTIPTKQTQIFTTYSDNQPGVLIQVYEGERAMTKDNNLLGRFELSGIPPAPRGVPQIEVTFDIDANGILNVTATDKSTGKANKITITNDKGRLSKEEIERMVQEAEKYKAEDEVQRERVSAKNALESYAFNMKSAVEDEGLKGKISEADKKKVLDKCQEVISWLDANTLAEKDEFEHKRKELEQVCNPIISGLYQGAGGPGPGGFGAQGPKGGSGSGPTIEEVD

Kd (sTNFR1)	Kd (Hsp70)	Compound	Inhibitory effect on TNF cytotoxic activity at 100 nM [1]	Effect on the cytotoxic activity of CD4+-T lymphocytes [2]
6690 ± 120 nM	3.15 ± 0.7 nM	CC(C)C[C@H](NC(=O)[C@@H](NC(=O)[C@H](Cc1ccc(O)cc1)NC(=O)[C@H](CC(N)=O)NC(=O)[C@H](CO)NC(=O)[C@@H](N)CCCNC(=N)N)C(C)C)C(=O)N[C@@H](CCCCN)C(=O)NCC(=O)O [17.1B, RSNYVLKG] (H-RSNYVLKG-OH)	weak inhibitory effect	completely block the cytotoxic effect of lymphocytes
	222 ± 15 nM	CC(C)[C@H](NC(=O)[C@H](CC(=O)O)NC(=O)[C@H](CCCNC(=N)N)NC(=O)[C@@H](N)Cc1c[nH]cn1)C(=O)N[C@@H](CCC(N)=O)C(=O)N[C@@H](CCCNC(=N)N)C(=O)N[C@H](C(=O)O)[C@@H](C)O [17.1A, HRDVQRT] (H-HRDVQRT-OH)		no effect on cell death
